Holding throughout (assay type): biochemical
The target of one assay is LSD-1 (Homo sapiens, UniProt O60341). Kind of assay: LSD-1 A-screen (AlphaScreen) demethylase enzymatic assay. The conditions noted are these: approximate values; for IC50: read-out: Potency LSD-1 IC50; for inhibition at 50 µM: 50 μM compound, read-out: Potency LSD-1 % Inhibition at 50 μM. The protocol:
(§1) Enzymatic activities of compounds of the present disclosure can be tested with recombinant human LSD using an in vitro enzymatic assay to determine the ability of the compounds of the present disclosure to inhibit LSD-1 and LSD2. Examples of the assay are provided below.
(§2) All of the enzymatic reactions were conducted in duplicate at room temperature for 60 minutes in a 10 μL mixture containing assay buffer, histone H3 peptide substrate, demthylase enzyme, and the test compound. These 10 μL reactions were carried out in wells of a 384-well Optiplate (PerkinElmer). The dilution of the compounds was first performed in 100% DMSO with the highest concentration at 5 mM Each intermediate compound dilution (in 100% DMSO) was then directly diluted 30× fold into assay buffer for 3.3× concentration (DMSO). […] From this intermediate step, 3 μL of compound was added to 4 μL of demethylase enzyme dilution was incubated for 30 minutes at room temperature. After this incubation, 3 μL of peptide substrate was added. The final DMSO concentration was 1%. After enzymatic reactions, 5 μL of anti-Mouse or anti-Rabbit Acceptor beads (PerkinElmer, diluted 1:500 with 1× detection buffer) and […] (BPS, diluted 1:800 with 1× detection buffer) were added to the reaction mix. After brief shaking, the plate was incubated for 30 minutes. Finally, 10 μL of AlphaScreen™ Streptavidin-conjugated donor beads (Perkin, diluted 1:125 with 1× detection buffer) were added. After 30 minutes, the samples were measured in an AlphaScreen microplate reader (EnSpire Alpha 2390 Multilabel Reader, Perkin Elmer).
(§3) Enzyme activity assays were performed in duplicates at each concentration. The A-screen intensity data were analyzed and compared. In the absence of the compound, the intensity in each data set was defined as 100% (Ce) activity. In the absence of enzyme, the intensity in each data set was defined as 0% (C0) activity. The percent activity in the presence of each compound was calculated according to the following equation: % activity=(C−C0)/(Ce−C0), where C=the intensity in the presence of the compound.
(§4) The value of percent activity versus a series of compound concentrations was then plotted using non-linear regression analysis of Sigmoidal dose-response curve generated with the equation Y=B+(T−B)/1+10((LogEC50−X)×Hill Slope), where Y=percent activity, B=minimum percent activity, T=maximum percent activity, X=logarithm of compound and Hill Slope=slope factor or Hill coefficient. The IC50 value was determined by the concentration causing a half-maximal percent activity.

A further assay deals with T1, LSD2 (Homo sapiens, UniProt Q8NB78).
T1 sequence (Q8NB78 1-822): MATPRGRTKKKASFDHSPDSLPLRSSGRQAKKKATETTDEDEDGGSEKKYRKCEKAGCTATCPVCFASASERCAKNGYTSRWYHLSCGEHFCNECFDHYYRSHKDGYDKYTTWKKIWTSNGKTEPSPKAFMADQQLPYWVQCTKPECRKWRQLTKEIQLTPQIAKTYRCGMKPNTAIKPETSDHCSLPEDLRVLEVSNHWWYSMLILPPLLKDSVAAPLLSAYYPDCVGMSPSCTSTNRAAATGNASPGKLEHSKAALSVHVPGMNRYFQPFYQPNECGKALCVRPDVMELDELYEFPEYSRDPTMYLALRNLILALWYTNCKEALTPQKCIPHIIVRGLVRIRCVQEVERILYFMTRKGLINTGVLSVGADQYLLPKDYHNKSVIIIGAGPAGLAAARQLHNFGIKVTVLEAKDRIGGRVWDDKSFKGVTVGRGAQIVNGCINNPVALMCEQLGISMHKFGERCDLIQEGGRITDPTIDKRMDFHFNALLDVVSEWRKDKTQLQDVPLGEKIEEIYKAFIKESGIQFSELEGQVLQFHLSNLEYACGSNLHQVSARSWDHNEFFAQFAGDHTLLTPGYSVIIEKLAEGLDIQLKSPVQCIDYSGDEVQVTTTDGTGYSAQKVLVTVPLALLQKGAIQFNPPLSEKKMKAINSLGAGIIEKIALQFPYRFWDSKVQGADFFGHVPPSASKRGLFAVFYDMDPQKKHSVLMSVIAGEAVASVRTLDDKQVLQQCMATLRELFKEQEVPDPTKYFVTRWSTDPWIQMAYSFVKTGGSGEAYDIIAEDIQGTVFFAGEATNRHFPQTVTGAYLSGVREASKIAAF
Nature of the assay: LSD2 A-screen (AlphaScreen) demethylase enzymatic assay. The following applies: approximate values; for IC50: read-out: Potency LSD-2 IC50; for inhibition at 50 µM: 50 μM compound, read-out: Potency LSD-2 % Inhibition at 50 μM. The method, then:
as §1, §2, §3, §4

A further assay concerns the target GSK3α (Homo sapiens, UniProt P49840). Nature of the assay: GSK3α in vitro enzymatic assay (Kinase-Glo Max luminescence). The following applies: recombinant human GSK3, 10 μM ATP; approximate values; read-out: Potency GSK3alpha. The protocol:
(§5) Enzymatic activities of compounds of the present disclosure can be tested using recombinant human GSK3 in an in vitro enzymatic assay to determine the ability of the compounds of the present disclosure to inhibit GSK3α and GSK3β.
(§6) The assay was performed using Kinase-Glo® Max luminescence kinase assay kit (Promega). The assay measures kinase activity by quantitating the amount of ATP remaining in solution following a kinase reaction. The luminescent signal from the assay is correlated with the amount of ATP present and is inversely correlated with the amount of kinase activity.
(§7) To perform the assay, compounds were diluted in 10% DMSO and 5 μl of the dilution was added to a 50 μl reaction so that the final concentration of DMSO was 1% in all of reactions. The enzymatic reactions were conducted at 30° C. for 40 minutes. The 50 μl reaction mixture contained 40 mM Tris, pH 7.4, 10 mM MgCl2, 0.1 mg/ml BSA, 2 mM DTT, 0.1 mg/ml GSK tide substrate, 10 uM ATP and GSK3. After the enzymatic reaction, 50 μl of Kinase-Glo Max Luminescence kinase assay solution (Promega) was added to each reaction and plates were incubated for 15 minutes at room temperature. Luminescence signal was measured using a BioTek Synergy 2 microplate reader.
(§8) Kinase activity assays were performed in duplicate at each concentration. The luminescence data were analyzed using the computer software, GraphPad Prism. The difference between luminescence intensities in the absence of Kinase (Lut) and in the presence of Kinase (Luc) was defined as 100% activity (Lut-Luc). Using luminescence signal (Lu) in the presence of the compound, percent activity was calculated as: % activity={(Lut-Lu)/(Lut-Luc)}×100%, where Lu=the luminescence intensity in the presence of the compound (all percent activities below zero were shown zero in the table).
(§9) The values of percent activity versus a series of compound concentrations were then plotted using non-linear regression analysis of Sigmoidal dose-response curve generated with the equation Y=B+(T−B)/1+10((LogEC50−X)×Hill Slope), where Y=percent activity, B=minimum percent activity, T=maximum percent activity, X=logarithm of compound and Hill Slope=slope factor or Hill coefficient. The ICs, value was determined by the concentration causing a half-maximal percent activity.

For the next assay, the target named is GSK3β (Homo sapiens, UniProt P49841). Kind of assay: GSK3β in vitro enzymatic assay (Kinase-Glo Max luminescence). The following applies: recombinant human GSK3, 10 μM ATP; approximate values; read-out: Potency GSK3beta. The method, then: as §5, §6, §7, §8, §9
GSK3β, sequence (P49841 whole entry): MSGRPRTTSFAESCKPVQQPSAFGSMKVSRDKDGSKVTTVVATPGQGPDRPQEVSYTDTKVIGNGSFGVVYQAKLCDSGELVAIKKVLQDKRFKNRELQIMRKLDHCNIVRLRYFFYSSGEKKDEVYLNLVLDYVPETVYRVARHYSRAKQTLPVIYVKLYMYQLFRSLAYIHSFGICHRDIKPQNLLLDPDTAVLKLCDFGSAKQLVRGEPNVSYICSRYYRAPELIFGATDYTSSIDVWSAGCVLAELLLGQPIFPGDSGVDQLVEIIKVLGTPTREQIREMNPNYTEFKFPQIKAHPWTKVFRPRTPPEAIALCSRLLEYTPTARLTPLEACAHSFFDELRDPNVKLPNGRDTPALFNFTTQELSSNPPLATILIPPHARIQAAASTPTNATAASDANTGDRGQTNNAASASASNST

Each structure is given as a SMILES string. Some results are limits rather than exact numbers.

The text below walks through data of patent US20230058189A1, “QUINOLIN-4-ONE AND 4(1H)-CINNOLINONE COMPOUNDS AND METHODS OF USING SAME” (Frequency Therapeutics, Inc., priority 2019, published 2023).

GSK3α, sequence (P49840 whole entry): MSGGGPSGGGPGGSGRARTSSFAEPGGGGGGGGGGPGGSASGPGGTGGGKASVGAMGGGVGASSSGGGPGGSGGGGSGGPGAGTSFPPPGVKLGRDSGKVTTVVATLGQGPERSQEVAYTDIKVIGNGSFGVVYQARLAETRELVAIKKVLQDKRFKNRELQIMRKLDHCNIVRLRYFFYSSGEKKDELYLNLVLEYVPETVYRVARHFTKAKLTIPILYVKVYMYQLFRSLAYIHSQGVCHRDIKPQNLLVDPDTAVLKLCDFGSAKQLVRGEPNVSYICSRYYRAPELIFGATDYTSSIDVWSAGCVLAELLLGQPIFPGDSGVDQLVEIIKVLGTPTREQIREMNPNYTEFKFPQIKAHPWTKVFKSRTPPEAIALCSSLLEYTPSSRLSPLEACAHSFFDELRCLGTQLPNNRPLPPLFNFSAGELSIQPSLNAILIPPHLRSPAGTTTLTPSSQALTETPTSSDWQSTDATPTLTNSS

As for `CCn1cc(C(=O)O)c(=O)c2c(N)c(F)c(Nc3ccc([C@@H]4C[C@H]4N)cc3)cc21` (relative stereo) [Compound I-62], the IC50 was over 100000 nM at LSD-1, 49000 nM on LSD2, 449 nM at GSK3α and 504 nM on GSK3β.
For the compound `CCn1cc(-c2nnn[nH]2)c(=O)c2c(N)c(F)c(NCCc3ccccc3)cc21` [Compound I-68], the values for the inhibition at 50 µM on LSD-1 and on LSD2 were 0% and 96%, respectively. In addition, the figures for the IC50 at GSK3α and at GSK3β were 581 nM and 711 nM, respectively.
As for `CCn1cc(C#N)c(=O)c2c(N)c(F)c(NCCN[C@@H]3C[C@H]3c3ccccc3)cc21` (relative stereo) [Compound I-84], the IC50 on LSD-1 was determined as 1400 nM; at LSD2, 41000 nM; at GSK3α, 2.7 nM; at GSK3β, 2.2 nM.
With `CCn1cc(C(=O)O)c(=O)c2c(N)c(F)c(NC3CC3)cc21` [Compound I-15], the inhibition at 50 µM on LSD-1 and on LSD2 was 2% throughout. For the same compound, the IC50 on GSK3α was 352 nM; on GSK3β it was 223 nM.
As to `CCn1cc(C(=O)O)c(=O)c2c(N)c(F)c(N[C@@H]3C[C@H]3c3ccccc3)cc21` [Compound I-21], the inhibition at 50 µM at LSD-1 came out at 19%; at LSD2, 0%. In addition, the IC50 on GSK3α is 392 nM; on GSK3β it was 334 nM.
In the case of `CCn1cc(C(=O)O)c(=O)c2c(N)c(F)c(NCc3ccccc3)cc21` [Compound I-17], the inhibition at 50 µM on LSD-1 was determined as 2%; at LSD2, 19%. Besides, the IC50 was 659 nM on GSK3α and 2030 nM on GSK3β.
In the case of `CCn1cc(C(=O)O)c(=O)c2c(N)c(F)c(NCCc3ccccc3)cc21` [Compound I-18], the inhibition at 50 µM on LSD-1 was 11%; on LSD2, 1%. For the same compound, the IC50 on GSK3α was 121 nM; on GSK3β, 231 nM.
For the compound `CCn1cc(C(=O)O)c(=O)c2c(N)cc(NCCCc3ccccc3)cc21` [Compound I-57], the inhibition at 50 µM at LSD-1 was 83%; at LSD2, 42%. Also, the results for the IC50 at GSK3α and at GSK3β were 762 nM and 1760 nM, respectively.
The corresponding values for `CCn1cc(C(=O)O)c(=O)c2cc(F)c(NC3CCCCC3)cc21` [Compound I-1] are 10%, 6%, 3600 nM and 6700 nM.
The corresponding values for `CCn1cc(C(=O)O)c(=O)c2c(N)c(F)c(N[C@H]3C[C@@H](c4ccccc4)C3)cc21` [Compound I-61] are 26%, 15%, 72 nM and 268 nM.
As for `CC(C)n1cc(C(=O)O)c(=O)c2c(N)c(F)c(NCCN[C@@H]3C[C@H]3c3ccccc3)cc21` (relative stereo) [Compound I-88], the values for the IC50 on LSD-1, on GSK3α and at GSK3β were 2600 nM, 19.5 nM and 83 nM, respectively. In addition, at LSD2, the inhibition at 50 µM turned out to be 14%.
As to `CCn1cc(C(=O)O)c(=O)c2c(N)c(F)c(NC3Cc4ccccc4C3)cc21` [Compound I-11], the results for the inhibition at 50 µM at LSD-1 and at LSD2 were 27% and 13%, respectively. Besides, the IC50 at GSK3α is 846 nM; on GSK3β it was 990 nM.
As to `CCn1cc(C(=O)O)c(=O)c2c(N)c(F)c(NCCN[C@@H]3C[C@@]34CCc3ccccc34)cc21` (relative stereo) [Compound I-82], the IC50 at LSD-1 worked out at 190 nM; on GSK3α, 1550 nM; on GSK3β it was 3380 nM. Moreover, the inhibition at 50 µM at LSD2 is 76%.
`CCn1cc(C(=O)O)c(=O)c2c(N)c(F)c(N[C@H]3C[C@H](c4ccccc4)C3)cc21` [Compound I-60]: the inhibition at 50 µM stood at 15% at LSD-1 and 4% at LSD2. In addition, the IC50 at GSK3α is 32 nM; on GSK3β, 31 nM.
Regarding `CCn1cc(C(=O)O)c(=O)c2c(N)c(F)c(NCCN[C@@H]3C[C@H]3c3ccccc3)cc21` (relative stereo) [Compound I-29], the IC50 worked out at 6900 nM at LSD-1, 119 nM on GSK3α and 303 nM on GSK3β. In addition, the inhibition at 50 µM on LSD2 is 54%.
On to `CCn1cc(C(=O)O)c(=O)c2c(N)c(F)c(NCCN[C@@H]3C[C@]34CCc3ccccc34)cc21` (relative stereo) [Compound I-81], for which the IC50 at LSD-1 is 58 nM; at LSD2, 43000 nM; at GSK3α it was 457 nM; at GSK3β, 546 nM.
As to `CCn1cc(C(=O)O)c(=O)c2c(N)c(F)c(NC3CCCC3)cc21` [Compound I-9], the values for the inhibition at 50 µM on LSD-1 and at LSD2 were 6% and 3%, respectively. The IC50 at GSK3α worked out at 69 nM; on GSK3β it was 53 nM.
The corresponding values for `CCn1cc(C(=O)O)c(=O)c2c(N)cc(NCCc3ccccc3)c(F)c21` [Compound I-65] are 88%, 38%, over 10000 nM and over 10000 nM.
The corresponding values for `CCn1cc(C(=O)O)c(=O)c2c(N)c(F)c(NC3CCc4ccccc43)cc21` (stereo not shown) [Compound I-10] are 22%, 6%, 3800 nM and 1900 nM.
